Assay results reported in article PMC10828444, “Selective inhibition of overactive warmth-sensitive Ca^2+-permeable TRPV3 channels by antispasmodic agent flopropione for alleviation of skin inflammation” (The Journal of Biological Chemistry, 2023).

What was measured:
hTRPM8 = biological target: T1, hTRPM8 (Homo sapiens, UniProt Q7Z2W7); test: Whole-cell patch-clamp of TRPM8 currents elicited by menthol in HEK293 cells; assay type: cell-based; conditions: flopropione 100 μM, menthol 500 μM
T1 construct: expressed in transfected cells; host or cells: HEK293
T1 sequence (Q7Z2W7 whole entry): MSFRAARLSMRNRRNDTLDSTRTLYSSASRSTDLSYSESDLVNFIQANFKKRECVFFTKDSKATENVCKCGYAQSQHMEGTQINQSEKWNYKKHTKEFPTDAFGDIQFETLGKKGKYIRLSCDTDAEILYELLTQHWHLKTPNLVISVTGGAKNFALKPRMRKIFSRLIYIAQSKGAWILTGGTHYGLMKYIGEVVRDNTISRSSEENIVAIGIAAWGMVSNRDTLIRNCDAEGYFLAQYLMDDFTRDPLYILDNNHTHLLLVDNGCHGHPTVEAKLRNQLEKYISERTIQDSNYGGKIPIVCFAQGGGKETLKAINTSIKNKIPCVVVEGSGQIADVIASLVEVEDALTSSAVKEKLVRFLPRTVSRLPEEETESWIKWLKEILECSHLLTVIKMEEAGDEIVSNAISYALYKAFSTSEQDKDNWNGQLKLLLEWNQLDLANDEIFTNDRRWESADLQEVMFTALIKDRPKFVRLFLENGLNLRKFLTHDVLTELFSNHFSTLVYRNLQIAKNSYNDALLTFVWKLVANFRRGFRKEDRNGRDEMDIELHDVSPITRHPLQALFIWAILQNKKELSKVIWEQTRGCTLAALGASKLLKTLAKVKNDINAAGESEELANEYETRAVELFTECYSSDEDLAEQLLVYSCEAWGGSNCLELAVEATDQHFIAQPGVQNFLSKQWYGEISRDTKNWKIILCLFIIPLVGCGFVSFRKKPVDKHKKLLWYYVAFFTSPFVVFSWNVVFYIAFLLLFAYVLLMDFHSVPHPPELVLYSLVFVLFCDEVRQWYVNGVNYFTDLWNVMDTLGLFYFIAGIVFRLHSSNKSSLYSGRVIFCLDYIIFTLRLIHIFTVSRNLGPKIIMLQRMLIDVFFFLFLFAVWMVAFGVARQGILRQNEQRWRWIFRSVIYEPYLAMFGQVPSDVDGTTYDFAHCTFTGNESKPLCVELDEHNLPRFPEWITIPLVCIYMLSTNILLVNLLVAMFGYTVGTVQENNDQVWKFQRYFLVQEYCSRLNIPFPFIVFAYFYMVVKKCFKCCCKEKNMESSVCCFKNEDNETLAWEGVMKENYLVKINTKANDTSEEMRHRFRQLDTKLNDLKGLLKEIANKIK
Protocol: (§1) HEK293 cells were cultured in Dulbecco’s modified Eagle’s medium (DMEM, Gibco) containing 4.5 g/L D-glucose supplemented with 10% fetal bovine serum based at 37 °C with 5% CO2. For whole-cell patch-clamp recordings, cells were grown in glass coverslips for 24 h before transient transfections with 3000 ng cDNAs of hTRPV3 (gene accession number BC104866.1), hTRPV1 (accession number NM_080704.3), mTRPV2 (accession number NM_011706.2), hTRPV4 (accession number NM_021625.5), hTRPA1 (accession number NM_007332.3) and hTRPM8 (accession number NM_024080.5) into HEK293 cells grown in a 35-mm cell culture dish using Lipofectamine 2000 (Invitrogen). Cells were used 18 ∼ 24 h after transfection. All WT or mutant hTRPV3 plasmids were validated by DNA sequencing.
(§2) Whole-cell patch clamp recordings of wild-type and mutants were carried out at room temperature using the HEKA EPC10 amplifier powered by PatchMaster software (HEKA) or MultiClamp 700B amplifier driven by Clampex 11.0.3 software. The borosilicate glass pipettes were pulled and fire-polished to 3∼6 MΩ using a DMZ universal electrode puller (Zeitz-Instruments, GmbH). Pipette solution and bath solution both contained (in mM): 130 NaCl, three HEPES, and 0.2 EDTA (pH = 7.4). Cell membrane potential was held at 0 mV, currents were recorded at a voltage ramp from −100 to +100 mV for 500-ms and analyzed at ±80 mV.

[1] = tested on: DNFB-induced dorsal skin inflammation; test: Mouse model of dorsal skin inflammation (atopic dermatitis) induced by DNFB; assay type: in vivo, C57BL/6J mice
Protocol: Mice were placed in a gas anesthesia device (SurgiVet) for anesthesia before the hair on the back was removed with a razor, followed by the application of an appropriate amount of hair removal cream to gently shave off the remaining hair. For generation of atopic dermatitis and ear swelling, chemical skin sensitizer DNFB (1-Fluoro-2,4-dinitrobenzene), commonly known as Sanger’s Reagent, was dissolved in a solvent (acetone/olive oil = 4/1, v/v) and 0.5% DNFB in 100 μl was applied once topically to the back and right ear for skin sensitization 1 day after acclimatization for hair removal ([43]) without any treatment for next 3 days. On the fifth and sixth days, 0.2% DNFB in 50 μl was applied topically once a day for 2 days for challenge before different concentrations of flopropione in 100 μl were topically applied once a day for four consecutive days. First application of topical flopropione started half an hour after the last application of 0.2% DNFB challenge. For the effect of flopropione on skin inflammation, topical flopropione (0.1 mM, 1 mM or 10 mM) in 100 μl was applied into ear and shaved area of dorsal skin by swabbing once a day for four consecutive days.
The score contents and criteria include (1): skin erythematous/bleeding (2), skin scratches/erosion (3), skin edema (4), skin scaling or lichenoid change ([44]). Each symptom was scored from 0 to 3 (none, 0; mild, one; moderate, two; severe, (3). The final score was defined as the sum of individual scores on a scale from 0 to 12. Mouse ear thickness was measured once a day for continuous 5 days with the first measurement of ear thickness 30 min after the last application of 0.2% DNFB using vernier caliper.
Mice were anesthetized with 1.0% isoflurane before sacrifice 24 h after the last treatment ([31], [32], [43]). Mouse dorsal skin was removed with scissors and forceps before fixed with 4% paraformaldehyde. Paraffin-embedded tissues were sectioned and stained with hematoxylin and eosin. Stained sections were observed using bright-field microscopy (ECLIPSE Ti-S, Nikon) and CCD-camera (DS-Ri2, Nikon).

hTRPV1 = biological target: T2, hTRPV1 (Homo sapiens, UniProt Q8NER1); test: Whole-cell patch-clamp of TRPV1 currents evoked by capsaicin in HEK293 cells; assay type: cell-based; conditions: flopropione 100 μM, 1 μM capsaicin
T2 construct: expressed in transfected cells; host or cells: HEK293
T2 sequence (Q8NER1 whole entry): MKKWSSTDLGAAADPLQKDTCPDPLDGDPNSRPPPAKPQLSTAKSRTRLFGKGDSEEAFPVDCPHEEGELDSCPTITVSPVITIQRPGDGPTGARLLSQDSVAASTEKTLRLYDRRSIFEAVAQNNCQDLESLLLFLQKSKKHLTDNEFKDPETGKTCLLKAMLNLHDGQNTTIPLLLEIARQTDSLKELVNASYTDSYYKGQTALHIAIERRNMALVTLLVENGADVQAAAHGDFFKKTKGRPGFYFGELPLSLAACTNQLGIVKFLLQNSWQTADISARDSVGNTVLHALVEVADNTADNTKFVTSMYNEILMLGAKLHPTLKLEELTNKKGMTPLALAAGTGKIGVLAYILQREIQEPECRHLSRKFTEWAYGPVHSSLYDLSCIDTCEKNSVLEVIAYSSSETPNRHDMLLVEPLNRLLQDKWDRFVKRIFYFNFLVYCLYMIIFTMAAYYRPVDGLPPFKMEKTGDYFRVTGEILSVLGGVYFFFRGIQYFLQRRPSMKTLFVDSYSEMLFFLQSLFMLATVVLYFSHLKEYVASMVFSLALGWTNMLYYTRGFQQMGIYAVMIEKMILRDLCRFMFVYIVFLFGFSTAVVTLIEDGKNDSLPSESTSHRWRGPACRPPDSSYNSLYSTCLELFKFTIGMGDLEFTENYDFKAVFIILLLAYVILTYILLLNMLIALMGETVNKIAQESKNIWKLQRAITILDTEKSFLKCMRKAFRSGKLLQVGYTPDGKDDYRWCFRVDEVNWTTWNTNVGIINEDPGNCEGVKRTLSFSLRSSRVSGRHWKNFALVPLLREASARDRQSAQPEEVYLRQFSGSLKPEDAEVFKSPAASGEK
Protocol: as §1, §2

hTRPV3 single channel = biological target: T3, hTRPV3 single channel (Homo sapiens, UniProt Q8NET8); test: Inside-out single-channel recordings of TRPV3 in HEK293 cells; assay type: cell-based; conditions: 50 μM flopropione in presence of 30 μM 2-APB, −60 mV
T3 construct: expressed in transfected cells; host or cells: HEK293
T3 sequence (Q8NET8 1-790): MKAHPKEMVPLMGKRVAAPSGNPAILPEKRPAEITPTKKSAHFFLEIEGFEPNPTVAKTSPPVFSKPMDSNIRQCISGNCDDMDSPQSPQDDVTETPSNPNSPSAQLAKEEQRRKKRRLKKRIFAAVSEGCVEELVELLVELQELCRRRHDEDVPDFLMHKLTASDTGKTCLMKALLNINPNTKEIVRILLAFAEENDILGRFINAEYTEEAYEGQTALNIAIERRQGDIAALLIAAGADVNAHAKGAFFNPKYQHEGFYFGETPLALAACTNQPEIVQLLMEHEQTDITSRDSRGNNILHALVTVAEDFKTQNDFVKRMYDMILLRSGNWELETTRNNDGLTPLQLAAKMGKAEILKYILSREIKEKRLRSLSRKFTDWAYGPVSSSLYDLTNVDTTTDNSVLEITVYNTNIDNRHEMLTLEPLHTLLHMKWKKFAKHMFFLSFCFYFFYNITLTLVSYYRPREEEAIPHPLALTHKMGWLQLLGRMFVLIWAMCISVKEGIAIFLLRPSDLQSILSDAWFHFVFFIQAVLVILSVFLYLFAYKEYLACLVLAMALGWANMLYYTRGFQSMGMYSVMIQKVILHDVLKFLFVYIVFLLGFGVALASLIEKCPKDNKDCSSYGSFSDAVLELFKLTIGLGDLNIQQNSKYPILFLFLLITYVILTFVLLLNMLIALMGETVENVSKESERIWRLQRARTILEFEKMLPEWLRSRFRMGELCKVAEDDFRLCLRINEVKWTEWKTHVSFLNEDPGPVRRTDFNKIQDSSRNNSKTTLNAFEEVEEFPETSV
Description: For single-channel recordings, borosilicate glass pipettes were pulled from borosilicate glass capillaries and fire-polished to the resistance between 6 and 10 MΩ using a DMZ universal electrode puller (Zeitz-Instruments, GmbH). For inside-out single-channel recordings, both pipette and external solutions contained (in mM): 130 NaCl, three HEPES, and 0.2 EDTA (pH = 7.4). Membrane potential was clamped at −60 mV and currents were digitized at 10 kHz and filtered at 2 kHz.

hTRPV4 = biological target: T4, hTRPV4 (Homo sapiens, UniProt Q9HBA0); test: Whole-cell patch-clamp of TRPV4 currents activated by GSK1016790A in HEK293 cells; assay type: cell-based; conditions: flopropione 100 μM, GSK1016790A 0.1 μM
T4 construct: expressed in transfected cells; host or cells: HEK293
T4 sequence (Q9HBA0 whole entry): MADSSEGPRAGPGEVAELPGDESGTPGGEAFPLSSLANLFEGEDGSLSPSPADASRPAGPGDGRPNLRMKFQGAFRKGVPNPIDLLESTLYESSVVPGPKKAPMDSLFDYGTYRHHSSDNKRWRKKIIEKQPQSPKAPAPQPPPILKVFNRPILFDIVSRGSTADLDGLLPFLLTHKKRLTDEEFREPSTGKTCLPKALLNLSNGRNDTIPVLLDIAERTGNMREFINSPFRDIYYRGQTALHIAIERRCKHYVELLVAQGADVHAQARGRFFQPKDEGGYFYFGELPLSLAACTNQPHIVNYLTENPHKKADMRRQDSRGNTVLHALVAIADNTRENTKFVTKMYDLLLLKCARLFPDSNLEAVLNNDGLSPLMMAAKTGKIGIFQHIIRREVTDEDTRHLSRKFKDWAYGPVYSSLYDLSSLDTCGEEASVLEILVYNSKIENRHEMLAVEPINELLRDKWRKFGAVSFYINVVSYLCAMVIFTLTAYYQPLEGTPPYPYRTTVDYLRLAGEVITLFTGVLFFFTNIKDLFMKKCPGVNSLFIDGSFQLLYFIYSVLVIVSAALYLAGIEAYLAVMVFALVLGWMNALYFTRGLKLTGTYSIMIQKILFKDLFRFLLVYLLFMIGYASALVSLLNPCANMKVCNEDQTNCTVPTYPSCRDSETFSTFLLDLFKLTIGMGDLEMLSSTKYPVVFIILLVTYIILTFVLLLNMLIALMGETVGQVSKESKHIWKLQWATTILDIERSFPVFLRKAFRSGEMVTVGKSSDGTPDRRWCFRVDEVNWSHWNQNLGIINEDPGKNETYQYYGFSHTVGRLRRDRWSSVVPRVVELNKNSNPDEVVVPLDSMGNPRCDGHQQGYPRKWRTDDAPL
Protocol: as §1, §2

CCC(=O)c1c(O)cc(O)cc1O [flopropione]
effect on TRPM8 currents (hTRPM8): no effect
dorsal skin inflammation (phenotype) ([1]; topical 0.1–10 mM, once a day for 4 days, vs DNFB alone): alleviated the skin inflammation in concentration-dependent manner
dermatitis scores ([1]; topical 0.1–10 mM, vs DNFB alone group, n = 5): significantly reduced the dermatitis scores
skin hyperkeratosis and lesion (histology, dorsal skin thickness) ([1]; topical 0.1 ∼ 10 mM, H&E sections, vs DNFB alone): reduced mouse skin hyperkeratosis and lesion
effect on TRPV1 currents (hTRPV1): no effect
unitary single channel conductance (hTRPV3 single channel): 167.1 ± 9.0 pS
single-channel open probability (hTRPV3 single channel; n = 4): 0.17 ± 0.06
effect on TRPV4 currents (hTRPV4): no effect
